Data published in publication PMC9124243 (Cell chemical biology, 2021).
Where two headings read alike, the source gives them in different places.

Tests used:
Mtb DnaK-DnaJ2-GrpE = Mtb DnaK-DnaJ2-GrpE (Mycobacterium tuberculosis, UniProt P9WMJ9); assay: biochemical
[1] = biological target: Mtb DnaK activation by DnaJ2 and GrpE (Mycobacterium tuberculosis, UniProt P9WMJ9); format: biochemical; conditions: for DnaJ2- and GrpE-mediated activation of DnaK: excess HCV inhibitor, DnaK 4 μM
M. smegmatis (Msm) = assay: Mycobacterial growth inhibition assay; format: cell-based, Mycobacterium smegmatis; conditions: for effect on Msm growth: wild-type Msm
Msm [2] = conditions: below the limit of detection; ref Fay et al., 2021; cited from earlier work
Mtb DnaK^FL = Mtb DnaK^FL (Mycobacterium tuberculosis, UniProt P9WMJ9); format: binding; conditions: FP competition
human Hsc70 and DnaJA2 = human Hsc70 and DnaJA2 (Homo sapiens, UniProt P11142); assay: Denatured luciferase refolding by human chaperones; format: biochemical
[3] = biological target: mycobacterial DnaK and GrpE with DnaJ2 (Mycobacterium tuberculosis, UniProt P9WMJ9); format: biochemical; conditions: excess compound
luciferase = assay: Luciferase counter-assay; format: biochemical
Msm [4] = assay: MIC assays for antibiotic synergy with TP; format: cell-based, Mycobacterium smegmatis; conditions: for improvement in MIC50: with 100 μM TP added
[5] = biological target: DnaK^SBD, residues 360-625 (Mycobacterium tuberculosis, UniProt P9WMJ9); format: binding; conditions: FP competition
Mtb DnaK = Mtb DnaK (Mycobacterium tuberculosis, UniProt P9WMJ9); format: biochemical; conditions: excess compound, DnaK without cofactors
Msm [6] = format: cell-based, Mycobacterium smegmatis
proteinase K = proteinase K (Parengyodontium album, UniProt P06873); assay: Hemoglobin proteolysis control for proteinase K activity; format: biochemical; conditions: 50 μM TP
HCV protease (NS3/4A) = conditions: ref Grillot et al., 2011; cited from earlier work
[7] = kinetic analysis of ATP hydrolysis by DnaK-DnaJ2-GrpE

Sequence of Mtb DnaK activation by DnaJ2 and GrpE (P9WMJ9 whole entry): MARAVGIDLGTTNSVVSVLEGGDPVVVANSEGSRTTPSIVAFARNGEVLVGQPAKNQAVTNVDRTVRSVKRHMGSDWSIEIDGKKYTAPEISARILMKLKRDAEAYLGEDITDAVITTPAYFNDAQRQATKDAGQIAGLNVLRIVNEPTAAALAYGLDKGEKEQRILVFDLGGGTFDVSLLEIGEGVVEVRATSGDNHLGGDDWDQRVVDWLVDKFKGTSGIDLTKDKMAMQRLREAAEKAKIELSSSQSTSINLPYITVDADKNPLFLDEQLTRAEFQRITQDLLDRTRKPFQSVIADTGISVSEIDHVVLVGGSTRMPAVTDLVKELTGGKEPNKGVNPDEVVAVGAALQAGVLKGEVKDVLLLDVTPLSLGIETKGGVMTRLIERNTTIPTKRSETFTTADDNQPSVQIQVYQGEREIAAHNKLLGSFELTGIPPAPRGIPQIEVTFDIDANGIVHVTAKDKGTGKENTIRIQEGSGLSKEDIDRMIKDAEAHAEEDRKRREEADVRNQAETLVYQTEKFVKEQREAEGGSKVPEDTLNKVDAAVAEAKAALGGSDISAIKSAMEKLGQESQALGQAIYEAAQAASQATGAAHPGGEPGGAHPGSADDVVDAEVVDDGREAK
Sequence of Mtb DnaK-DnaJ2-GrpE (P9WMJ9 whole entry): as above
Sequence of human Hsc70 and DnaJA2 (P11142 whole entry): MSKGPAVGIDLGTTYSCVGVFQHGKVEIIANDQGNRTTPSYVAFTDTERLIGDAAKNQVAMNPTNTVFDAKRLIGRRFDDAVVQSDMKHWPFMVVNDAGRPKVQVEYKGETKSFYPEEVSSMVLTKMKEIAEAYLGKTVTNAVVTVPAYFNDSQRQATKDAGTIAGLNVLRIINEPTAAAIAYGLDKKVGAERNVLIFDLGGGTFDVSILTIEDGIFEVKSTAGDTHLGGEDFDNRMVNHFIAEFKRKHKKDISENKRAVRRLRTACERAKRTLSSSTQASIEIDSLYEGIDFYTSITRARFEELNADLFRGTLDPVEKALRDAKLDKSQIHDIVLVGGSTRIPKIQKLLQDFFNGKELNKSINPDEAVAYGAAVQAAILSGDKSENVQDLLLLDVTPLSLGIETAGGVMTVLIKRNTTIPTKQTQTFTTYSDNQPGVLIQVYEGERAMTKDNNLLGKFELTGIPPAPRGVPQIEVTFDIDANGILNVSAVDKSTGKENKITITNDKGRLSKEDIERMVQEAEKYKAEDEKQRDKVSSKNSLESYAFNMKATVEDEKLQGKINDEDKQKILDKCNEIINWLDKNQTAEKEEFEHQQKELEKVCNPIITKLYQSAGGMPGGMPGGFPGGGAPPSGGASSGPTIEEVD
Sequence of proteinase K (P06873 106-384): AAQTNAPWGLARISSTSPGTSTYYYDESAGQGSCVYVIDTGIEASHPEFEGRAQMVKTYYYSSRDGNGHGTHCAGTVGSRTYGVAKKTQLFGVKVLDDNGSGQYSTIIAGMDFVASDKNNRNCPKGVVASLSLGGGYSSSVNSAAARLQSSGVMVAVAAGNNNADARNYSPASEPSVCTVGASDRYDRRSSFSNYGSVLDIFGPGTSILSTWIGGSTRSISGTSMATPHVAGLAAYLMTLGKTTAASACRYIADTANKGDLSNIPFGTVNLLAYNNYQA
Sequence of DnaK^SBD, residues 360-625 (P9WMJ9 360-625): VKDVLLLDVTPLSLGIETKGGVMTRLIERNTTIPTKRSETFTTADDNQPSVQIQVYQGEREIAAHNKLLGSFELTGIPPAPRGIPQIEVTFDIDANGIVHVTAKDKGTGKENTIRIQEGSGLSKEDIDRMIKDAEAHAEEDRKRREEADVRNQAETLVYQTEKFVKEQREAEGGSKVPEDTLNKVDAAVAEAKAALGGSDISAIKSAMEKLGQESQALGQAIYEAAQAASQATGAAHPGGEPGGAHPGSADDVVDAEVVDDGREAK
Sequence of Mtb DnaK^FL (P9WMJ9 whole entry): as the sequence (P9WMJ9 whole entry) above
Sequence of mycobacterial DnaK and GrpE with DnaJ2 (P9WMJ9 whole entry): as above
Sequence of Mtb DnaK (P9WMJ9 whole entry): as above

For `COc1ccc2c(O[C@@H]3C[C@H]4C(=O)N[C@]5(C(=O)NS(=O)(=O)C6CC6)C[C@H]5/C=C\CCCCN(C)C(=O)[C@@H]4C3)cc(-c3nc(C(C)C)cs3)nc2c1C` [simeprevir], the “IC50 value relative to that of TP” value (Mtb DnaK-DnaJ2-GrpE; DnaK-DnaJ2-GrpE ATPase) was ~ 8 fold, the “inhibition of DnaK-DnaJ2-GrpE ATPase activity in dose-response assay” value (“inhibition … in dose-response assay” for short) (Mtb DnaK-DnaJ2-GrpE; dose-response) was “measurable inhibition” and the “DnaJ2- and GrpE-mediated activation of DnaK” value [1] was “significantly disrupted”. The “effect on Msm growth” value (M. smegmatis (Msm)) was “did not affect Msm growth”.
In the case of 4BB-Val-Val-Pro-Leu-OMe [Compound 6], the “inhibition … in dose-response assay” value (Mtb DnaK-DnaJ2-GrpE) is reported as “no activity”.
For `CO[C@H]1/C=C/O[C@@]2(C)Oc3c(C)c(O)c4c(O)c(c(/C=N/N5CCN(C)CC5)c(O)c4c3C2=O)NC(=O)/C(C)=C\C=C\[C@H](C)[C@H](O)[C@@H](C)[C@@H](O)[C@@H](C)[C@H](OC(C)=O)[C@@H]1C` [RIF, rifampicin], the “FOR value of Msm ΔdnaJ2 cells” value (Msm [2]) is given as < 10^−10.
In the case of `CC(C)(C)NC(=O)N[C@H](C(=O)N1C[C@H]2[C@@H]([C@H]1C(=O)NC(CC1CCC1)C(=O)C(N)=O)C2(C)C)C(C)(C)C` (some centres unmarked) [BC, boceprevir], the “inhibition … in dose-response assay” value (Mtb DnaK-DnaJ2-GrpE; dose-response) is reported as “inactive”, the “competition with FL-NR for binding to DnaK” value (Mtb DnaK^FL) is reported as “no effect on binding of the probe” and the “inhibition of human chaperones” value (human Hsc70 and DnaJA2; excess compound) is reported as “does not inhibit”. For the same compound, the “effect on refolding reactions” value [3] was “only a slight effect”.
With `CNC(=O)[C@H]1O[C@@H](n2cnc3c(NCc4cccc(I)c4)nc(Cl)nc32)[C@H](O)[C@@H]1O` [MECA, 2Cl-IB-MECA] the IC50 (Mtb DnaK-DnaJ2-GrpE) was ~4500 nM, the “competition with ATP” value (Mtb DnaK-DnaJ2-GrpE; [7]) was “no competition with ATP” and the “activity against luciferase alone” value (luciferase) was “no activity”. The “DnaJ2-mediated activation of DnaK's ATPase activity” value [1] was “hindered”, the “activation of DnaK by increasing concentrations of GrpE” value ([1]; excess MECA, sub-stoichiometric DnaJ2) was “nearly abrogated” and the “effect on Msm growth” value (M. smegmatis (Msm)) was “only TP appears to cause growth inhibition of mycobacterial cells”.
With 4BB-Val-Val-Pro-Leu-OH [Compound 3] the “inhibition … in dose-response assay” value (Mtb DnaK-DnaJ2-GrpE) was “no activity”.
With `NC[C@H]1O[C@H](O[C@H]2[C@H](O)[C@@H](O[C@H]3O[C@H](CO)[C@@H](O)[C@H](N)[C@H]3O)[C@H](N)C[C@@H]2N)[C@H](O)[C@@H](O)[C@@H]1O` [kanamycin] the “improvement in MIC50” value (Msm [4]) was ~ 2 fold.
For `CCC[C@H](NC(=O)[C@@H]1[C@H]2CCC[C@H]2CN1C(=O)[C@@H](NC(=O)[C@@H](NC(=O)c1cnccn1)C1CCCCC1)C(C)(C)C)C(=O)C(=O)NC1CC1` [TP, Telaprevir], the “increase of the KM of DnaK” value (Mtb DnaK-DnaJ2-GrpE; [7]) was ~ 2 fold, the “activity against luciferase alone” value (luciferase) was “no activity” and the “DnaJ2- and GrpE-mediated activation of DnaK” value [1] was “significantly disrupted”. For the same compound, the “displacement of FL-NR from DnaK^SBD” value [5] was “displace FL-NR”, the “effect on DnaK ATPase activity” value (Mtb DnaK) was “slightly inhibits” and the “refolding activity compared to DMSO alone” value (human Hsc70 and DnaJA2; 100 μM TP) was 35%. The “concentration causing growth inhibition” value (M. smegmatis (Msm)) was > 100 µM, the “growth of Msm ΔdnaJ1” value (M. smegmatis (Msm); 100 μM TP) was “growth defects” and the “effect on activity of rifampicin” value (Msm [4]; 100 μM TP) was “does not affect the activity”. The “lowering of the FOR of RIF” value (Msm [6]; 100 μM TP + 240 μM RIF, Msm) was “about 1 log10”, the “FOR of Msm for RIF with TP added” value (Msm [6]; 240 μM RIF + 100 μM TP) was ~ 10^−8 and the “effect on cleavage by proteinase K” value (proteinase K) was “did not affect cleavage by proteinase K”. The Ki (HCV protease (NS3/4A)) was 44 nM.
In the case of `[H]/N=C(/N)N[C@H]1[C@H](O)[C@@H](O)[C@H](O[C@@H]2O[C@@H](C)[C@](O)(C=O)[C@H]2O[C@@H]2O[C@@H](CO)[C@H](O)[C@@H](O)[C@@H]2NC)[C@@H](N/C(N)=N\[H])[C@@H]1O` [streptomycin], the “improvement in MIC50” value (Msm [4]) is reported as ~4 fold.
